Converted amounts (≈) assume the structure as drawn.

Results on 17 compounds are retold here after patent publication US9663478B2, “Benzotriazine oxides as drugs targeting Mycobacterium tuberculosis” (priority 2011, dated 2017).

The test system of data set [1] is Mtb H37Rv. The data set can be described thus: TB MIC - SRI, resazurin-based microplate assay. Format: cell-based, Mycobacterium tuberculosis. The note with it: Mycobacterium tuberculosis, H37RV, read-out: TB MIC - SRI.
In data set [2] the test system is Mtb H37Rv. The data set can be described thus: TB MIC - ITR (UIC), Institute for Tuberculosis Research. Format: cell-based, Mycobacterium tuberculosis. The note with it: for MIC: Mycobacterium tuberculosis, H37RV, Tables 1-4, read-out: TB MIC - ITR; for TB MIC - UIC: Tables P1, P2.
For data set [3], the system named is NRP Mtb H37Rv cells. The data set can be described thus: Low-oxygen recovery assay (LORA) MIC. Format: cell-based, Mycobacterium tuberculosis. The note with it: for MIC: Mycobacterium tuberculosis, H37RV, NRP Mtb, Tables 1-4 and text, read-out: LORA MIC - ITR; for LORA MIC: Tables P1, P2, non-replicating M. tuberculosis.
Data set [4] is described as follows: in vitro. To be noted: African green monkey, VERO Tox (CC50).
Data set [5] concerns Vero cells. The data set can be described thus: Cytotoxicity against Vero cells (Cell Titer-Glo). The note with it: 72 h; Tables 1-4 and text. Background: ATP-based viability assays read luminescence as a measure of living cells.

One may read the MIC as the lowest concentration found to suppress growth. One may read the CC50 as the concentration giving 50% cytotoxicity. Low values mean greater toxicity to the cells, high ones lower toxicity to the cells. In the case of `CCC(COC)Nc1n[n+]([O-])c2cc(Cl)ccc2[n+]1[O-]` (centres unmarked) [Compound 15bi, 7-chloro-3-((1-methoxybutan-2-yl)amino)benzo[e][1,2,4]triazine 1,4-dioxide], the MIC in data set [1] (Tables 1-4 and text) was 1.2 µg/mL (≈ 4.02 µM); in data set [2], 1.4 µg/mL (≈ 4.69 µM); in data set [3], 0.78 µg/mL (≈ 2.61 µM). In data set [4], it took 2.6 µg/mL (≈ 8.7 µM) to reach half-maximal cytotoxicity (CC50 at 72 h).
Take `O=C(Cn1ccnc1[N+](=O)[O-])NCCO` [Etanidazole, reference compound]: the MIC in data set [1] (Tables 1-4 and text) was more than 10 µg/mL; in data set [2] it was more than 32 µg/mL; in data set [3], 26 µg/mL (≈ 121 µM). Besides, the “Vero Tox CC50” value in data set [5] was more than 16 µg/mL.
The matching figures for `NNC(=O)c1ccncc1` [INH, Isoniazid, reference compound]: 0.06 µg/mL (≈ 0.438 µM), 0.091 µg/mL (≈ 0.664 µM), more than 20 µg/mL and more than 50 µg/mL.
Regarding `Cc1ncc([N+](=O)[O-])n1CCO` [Metronidazole, reference compound], the MIC in data set [1] (Tables 1-4 and text) was more than 10 µg/mL; in data set [2], more than 32 µg/mL; in data set [3], 11 µg/mL (≈ 64.3 µM). The “Vero Tox CC50” value in data set [5] was more than 16 µg/mL.
The corresponding values for `O=C1CN(/N=C/c2ccc([N+](=O)[O-])o2)C(=O)N1` [Nitrofurantoin, reference compound] are 16 µg/mL (≈ 67.2 µM), 28 µg/mL (≈ 118 µM), 32 µg/mL (≈ 134 µM) and 23 µg/mL.
Regarding `CC(C)(C)C1CCC(Nc2n[n+]([O-])c3ccccc3[n+]2[O-])CC1` (centres unmarked) [SRI-012257], the minimal inhibitory concentration (MIC) in data set [1] (Tables P1-P3) is 0.625 µg/mL (≈ 1.98 µM). In data set [2], this compound returned a TB MIC - UIC of 0.22 µg/mL. The same compound gave an LORA MIC in data set [3] of less than 0.125 µg/mL. Also, the midpoint of cytotoxicity in data set [4], the CC50 at 72 h, lay at 2.3 µg/mL (≈ 7.27 µM).
The corresponding values for `CC(C)CCC(C)Nc1n[n+]([O-])c2ccccc2[n+]1[O-]` (centres unmarked) [SRI-012259] are 1.25 µg/mL (≈ 4.52 µM), 0.52 µg/mL, 0.38 µg/mL and 4.1 µg/mL (≈ 14.8 µM).
The corresponding values for `[O-][n+]1nc(NC2CCC2)[n+]([O-])c2ccccc21` [SRI-012260] are 1.25 µg/mL (≈ 5.38 µM), 0.94 µg/mL, 0.84 µg/mL and 8.9 µg/mL (≈ 38.3 µM).
The matching figures for `CCC(C)Nc1n[n+]([O-])c2ccccc2[n+]1[O-]` (centres unmarked) [SRI-012262]: 2.5 µg/mL (≈ 10.7 µM), 2 µg/mL, 1.28 µg/mL and 21.6 µg/mL (≈ 92.2 µM).
In the case of `CC(C)CC(C)Nc1n[n+]([O-])c2ccccc2[n+]1[O-]` (centres unmarked) [SRI-012263], in data set [1] (Tables P1-P3), the MIC came to 2.5 µg/mL (≈ 9.53 µM). Further, the TB MIC - UIC in data set [2] worked out at 1.98 µg/mL. The compound also yielded an LORA MIC in data set [3] of 0.83 µg/mL. For the same compound, the CC50 at 72 h in data set [4] is 11.7 µg/mL (≈ 44.6 µM).
The matching figures for `CC(C)C(C)Nc1n[n+]([O-])c2ccccc2[n+]1[O-]` (centres unmarked) [SRI-012267]: 5 µg/mL (≈ 20.1 µM), 1.93 µg/mL, 0.98 µg/mL and 21 µg/mL (≈ 84.6 µM).
The corresponding values for `CC(Nc1n[n+]([O-])c2ccccc2[n+]1[O-])C(C)(C)C` (centres unmarked) [SRI-012268] are 5 µg/mL (≈ 19.1 µM), 2.43 µg/mL, 1 µg/mL and 20.2 µg/mL (≈ 77 µM).
The corresponding values for `[O-][n+]1nc(NC2[C@H]3C[C@@H]4C[C@@H](C[C@H]2C4)C3)[n+]([O-])c2ccccc21` (some centres unmarked) [SRI-012269] are 2.5 µg/mL (≈ 8 µM), 1.91 µg/mL, 2.33 µg/mL and 7.3 µg/mL (≈ 23.4 µM).
Regarding `CC1CC(Nc2n[n+]([O-])c3ccccc3[n+]2[O-])CC(C)(C)C1` (centres unmarked) [SRI-012270], in data set [1] (Tables P1-P3), the MIC was 1.25 µg/mL (≈ 4.13 µM). In addition, in data set [2], the TB MIC - UIC was 0.57 µg/mL. In data set [3], this compound showed an LORA MIC of 0.39 µg/mL. Moreover, in data set [4], the CC50 at 72 h was found to be 5.2 µg/mL (≈ 17.2 µM).
The corresponding values for `CCC(CC)Nc1n[n+]([O-])c2ccccc2[n+]1[O-]` [SRI-012271] are 5 µg/mL (≈ 20.1 µM), 3.63 µg/mL, 1.94 µg/mL and 36.5 µg/mL (≈ 147 µM).
The corresponding values for `CCC(COC)Nc1n[n+]([O-])c2ccccc2[n+]1[O-]` (centres unmarked) [SRI-012272] are 10 µg/mL (≈ 37.8 µM), 6.57 µg/mL, 4.87 µg/mL and 50 µg/mL (≈ 189 µM).
In the case of `Nc1n[n+]([O-])c2ccccc2[n+]1[O-]` [TPZ, tirapazamine, reference compound], the MIC worked out at 5 µg/mL (≈ 28.1 µM) in data set [1] (Tables 1-4 and text); 3.7 µg/mL (≈ 20.8 µM) in data set [2]; 7.3 µg/mL (≈ 41 µM) in data set [3]. In addition, the “Vero Tox CC50” value in data set [5] turned out to be 8.0 µg/mL.
